Test results as given in US6908935B2, “Calcium receptor modulating agents” (Amgen Inc., priority 2002, dated 2005).

target: T1, human parathyroid cell Ca^2+ receptor (hPCaR) (Homo sapiens, UniProt P41180); assay: [Ca2+]i measurement with fluo-3 in HEK 293 4.0-7 cells stably transfected with hPCaR; assay type: cell-based; settings: fluo-3 fluorescence (485/530 nm), effect on [Ca^2+]i
T1 construct: expressed in transfected cells
T1 sequence (P41180 20-1078): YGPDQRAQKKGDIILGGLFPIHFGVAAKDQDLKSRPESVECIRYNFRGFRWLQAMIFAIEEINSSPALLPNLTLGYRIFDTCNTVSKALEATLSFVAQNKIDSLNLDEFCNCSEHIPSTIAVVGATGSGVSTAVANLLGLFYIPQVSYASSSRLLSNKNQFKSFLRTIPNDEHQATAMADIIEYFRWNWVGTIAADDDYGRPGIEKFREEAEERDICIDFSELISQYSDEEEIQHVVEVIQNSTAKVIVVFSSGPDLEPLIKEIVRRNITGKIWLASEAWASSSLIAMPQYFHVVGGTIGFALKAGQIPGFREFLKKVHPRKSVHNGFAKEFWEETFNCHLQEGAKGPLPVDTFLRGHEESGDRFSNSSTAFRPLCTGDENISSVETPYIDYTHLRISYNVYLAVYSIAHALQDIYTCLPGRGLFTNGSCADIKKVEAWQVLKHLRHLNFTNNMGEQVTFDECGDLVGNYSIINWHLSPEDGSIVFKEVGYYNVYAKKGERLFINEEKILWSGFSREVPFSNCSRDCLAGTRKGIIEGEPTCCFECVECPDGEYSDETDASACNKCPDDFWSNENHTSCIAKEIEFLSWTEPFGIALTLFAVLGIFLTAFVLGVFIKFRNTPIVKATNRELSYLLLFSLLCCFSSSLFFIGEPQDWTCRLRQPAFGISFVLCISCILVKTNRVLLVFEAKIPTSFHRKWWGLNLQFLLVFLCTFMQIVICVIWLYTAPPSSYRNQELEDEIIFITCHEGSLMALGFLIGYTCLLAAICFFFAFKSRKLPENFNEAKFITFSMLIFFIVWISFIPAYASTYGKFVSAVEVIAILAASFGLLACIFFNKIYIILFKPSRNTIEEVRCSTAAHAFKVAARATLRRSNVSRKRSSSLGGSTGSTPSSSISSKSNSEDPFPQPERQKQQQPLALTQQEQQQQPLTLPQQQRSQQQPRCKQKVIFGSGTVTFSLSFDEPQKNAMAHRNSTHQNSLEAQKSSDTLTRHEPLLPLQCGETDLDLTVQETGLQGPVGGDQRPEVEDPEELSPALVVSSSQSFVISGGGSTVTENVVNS
Outline: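 Cytosolic [Ca2+] was read as fluo-3 fluorescence (ex 485/em 530 nm) after compound addition to washed cells. Cells were hPCaR-transfected HEK 293 clone 7, dye-loaded 30 min at 37 °C with 2 μM fluo-3 acetoxymethyl ester in HEPES-buffered saline pH 7.45 containing 1 mM CaCl2 and 0.5% BSA.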

EC50, ≤ 10 µM:
COc1ccc([C@@H](C)NCc2ccc(OC)c(-c3ccsc3)c2)cc1 [(1R)-1-(4-(methyloxy)phenyl)-N-((4-(methyloxy)-3-(3-thienyl)phenyl)methyl)ethanamine], COc1ccc([C@@H](C)NCc2ccc(OC)c(-c3cncnc3)c2)cc1 [(1R)-1-(4-(methyloxy)phenyl)-N-((4-(methyloxy)-3-(5-pyrimidinyl)phenyl)methyl)ethanamine], Cc1ccc([C@@H](C)NCc2cccc(-c3ccccn3)c2)cc1 [(1R)-1-(4-methylphenyl)-N-((3-(2-pyridinyl)phenyl)methyl)ethanamine], Cc1ccc([C@@H](C)NCc2cccc(-c3ccc(C)nc3)c2)cc1 [(1R)-1-(4-methylphenyl)-N-((3-(6-methyl-3-pyridinyl)phenyl)methyl)ethanamine], C[C@@H](NCc1cccc(-c2cnccn2)c1)c1ccccc1 [(1R)-1-phenyl-N-((3-(2-pyrazinyl)phenyl)methyl)ethanamine], C[C@@H](NCc1cccc(-c2ccccn2)c1)c1ccccc1 [(1R)-1-phenyl-N-((3-(2-pyridinyl)phenyl)methyl)ethanamine], C[C@@H](NCc1ccc(N2CCCC2)cc1)c1ccccc1 [(1R)-1-phenyl-N-((4-(1-pyrrolidinyl)phenyl)methyl)ethanamine], C[C@@H](NCc1ccc(OCC(F)(F)F)c(-c2ccc(C(F)(F)F)cc2)c1)c1ccccc1 [(1R)-1-phenyl-N-((6-((2,2,2-trifluoroethyl)oxy)-4′-(trifluoromethyl)-1,1′-biphenyl-3-yl)methyl)ethanamine], COc1ccc(CN[C@H](C)c2ccccc2)cc1-c1ccnc(Cl)c1 [(1R)-N-(3-(2-chloropyrid-4-yl)-4-methoxyphenyl)methyl-N-1-phenylethylamine], COc1cccc([C@@H](C)NCc2cccc(-c3ccccc3F)c2)c1 [(1R)-N-((2′-fluoro-1,1′-biphenyl-3-yl)methyl)-1-(3-(methyloxy)phenyl)ethanamine], COc1ccc([C@@H](C)NCc2cccc(-c3ccccc3F)c2)cc1 [(1R)-N-((2′-fluoro-1,1′-biphenyl-3-yl)methyl)-1-(4-(methyloxy)phenyl)ethanamine], Cc1ccc([C@@H](C)NCc2cccc(-c3ccccc3F)c2)cc1 [(1R)-N-((2′-fluoro-1,1′-biphenyl-3-yl)methyl)-1-(4-methylphenyl)ethanamine], COc1ccc([C@@H](C)NCc2cccc(-c3ccccc3C)c2)cc1 [(1R)-N-((2′-methyl-1,1′-biphenyl-3-yl)methyl)-1-(4-(methyloxy)phenyl)ethanamine], Cc1ccc([C@@H](C)NCc2cccc(-c3ccccc3C)c2)cc1 [(1R)-N-((2′-methyl-1,1′-biphenyl-3-yl)methyl)-1-(4-methylphenyl)ethanamine], COc1ccc([C@@H](C)NCc2cccc(-c3ccc4c(c3)OCO4)c2)cc1 [(1R)-N-((3-(1,3-benzodioxol-5-yl)phenyl)methyl)-1-(4-(methyloxy)phenyl)ethanamine], Cc1ccc([C@@H](C)NCc2cccc(-c3ccc4c(c3)OCO4)c2)cc1 [(1R)-N-((3-(1,3-benzodioxol-5-yl)phenyl)methyl)-1-(4-methylphenyl)ethanamine], C[C@@H](NCc1cccc(-c2ccc3c(c2)OCO3)c1)c1ccccc1 [(1R)-N-((3-(1,3-benzodioxol-5-yl)phenyl)methyl)-1-phenylethanamine], COc1ccc(CN[C@H](C)c2cccc3ccccc23)cc1-c1nc2ccccc2s1 [(1R)-N-((3-(1,3-benzothiazol-2-yl)-4-(methyloxy)phenyl)methyl)-1-(1-naphthalenyl)ethanamine], COc1cccc([C@@H](C)NCc2ccc(OC)c(-c3nc4ccccc4s3)c2)c1 [(1R)-N-((3-(1,3-benzothiazol-2-yl)-4-(methyloxy)phenyl)methyl)-1-(3-(methyloxy)phenyl)ethanamine], COc1ccc(CN[C@H](C)c2ccccc2)cc1-c1nc2ccccc2s1 [(1R)-N-((3-(1,3-benzothiazol-2-yl)-4-(methyloxy)phenyl)methyl)-1-phenylethanamine], COc1ccc(CN[C@H](C)c2cccc3ccccc23)cc1-c1ccc2ocnc2c1 [(1R)-N-((3-(1,3-benzoxazol-5-yl)-4-(methyloxy)phenyl)methyl)-1-(1-naphthalenyl)ethanamine], COc1ccc(CN[C@H](C)c2cccc3ccccc23)cc1-c1ccc2c(ccn2CC2CC2)c1 [(1R)-N-((3-(1-(cyclopropylmethyl)-1H-indol-5-yl)-4-(methyloxy)phenyl)methyl)-1-(1-naphthalenyl)ethanamine], COc1cccc([C@@H](C)NCc2ccc(OC)c(-c3ccc4c(ccn4CC4CC4)c3)c2)c1 [(1R)-N-((3-(1-(cyclopropylmethyl)-1H-indol-5-yl)-4-(methyloxy)phenyl)methyl)-1-(3-(methyloxy)phenyl)ethanamine], COc1ccc(CN[C@H](C)c2ccccc2)cc1-c1ccc2c(ccn2CC2CC2)c1 [(1R)-N-((3-(1-(cyclopropylmethyl)-1H-indol-5-yl)-4-(methyloxy)phenyl)methyl)-1-phenylethanamine], COc1ccc(CN[C@H](C)c2cccc3ccccc23)cc1C1CCN(C(C)=O)CC1 [(1R)-N-((3-(1-acetyl-4-piperidinyl)-4-(methyloxy)phenyl)methyl)-1-(1-naphthalenyl)ethanamine], COc1ccc(CN[C@H](C)c2cccc3ccccc23)cc1-c1csc2ccccc12 [(1R)-N-((3-(1-benzothien-3-yl)-4-(methyloxy)phenyl)methyl)-1-(1-naphthalenyl)ethanamine], COc1ccc(CN[C@H](C)c2ccccc2)cc1-c1csc2ccccc12 [(1R)-N-((3-(1-benzothien-3-yl)-4-(methyloxy)phenyl)methyl)-1-phenylethanamine], COc1ccc(CN[C@H](C)c2cccc3ccccc23)cc1-c1nc2ccccc2n1C [(1R)-N-((3-(1-methyl-1H-benzimidazol-2-yl)-4-(methyloxy)phenyl)methyl)-1-(1-naphthalenyl)ethanamine], COc1ccc(CN[C@H](C)c2cccc3ccccc23)cc1-c1ccc2c(c1)ncn2C [(1R)-N-((3-(1-methyl-1H-benzimidazol-5-yl)-4-(methyloxy)phenyl)methyl)-1-(1-naphthalenyl)ethanamine], COc1cccc([C@@H](C)NCc2ccc(OC)c(-c3ccc4c(c3)ncn4C)c2)c1 [(1R)-N-((3-(1-methyl-1H-benzimidazol-5-yl)-4-(methyloxy)phenyl)methyl)-1-(3-(methyloxy)phenyl)ethanamine], COc1ccc(CN[C@H](C)c2ccccc2)cc1-c1ccc2c(c1)ncn2C [(1R)-N-((3-(1-methyl-1H-benzimidazol-5-yl)-4-(methyloxy)phenyl)methyl)-1-phenylethanamine], COc1ccc(CN[C@H](C)c2cccc3ccccc23)cc1-c1cn(C)cn1 [(1R)-N-((3-(1-methyl-1H-imidazol-4-yl)-4-(methyloxy)phenyl)methyl)-1-(1-naphthalenyl)ethanamine], COc1ccc(CN[C@H](C)c2ccccc2)cc1-c1cn(C)cn1 [(1R)-N-((3-(1-methyl-1H-imidazol-4-yl)-4-(methyloxy)phenyl)methyl)-1-phenylethanamine], COc1ccc(CN[C@H](C)c2cccc3ccccc23)cc1-c1ccc2c(cnn2C)c1 [(1R)-N-((3-(1-methyl-1H-indazol-5-yl)-4-(methyloxy)phenyl)methyl)-1-(1-naphthalenyl)ethanamine], COc1ccc(CN[C@H](C)c2ccccc2)cc1-c1ccc2c(cnn2C)c1 [(1R)-N-((3-(1-methyl-1H-indazol-5-yl)-4-(methyloxy)phenyl)methyl)-1-phenylethanamine]
